Like-named read-outs stand apart in the source and are kept apart here.
Assays:
Assay type in all cases: in vivo
[1] = system: Diabrotica balteata; assay: Example B1: Diabrotica balteata (corn root worm), sprayed maize sprouts; conditions: 96 h, read-out: effect in at least one of the two categories (mortality or growth inhibition)
Experimental: Example B1: Diabrotica balteata (Corn Root Worm)
Maize sprouts placed onto an agar layer in 24-well microtiter plates were treated with aqueous test solutions prepared from 10′000 ppm DMSO stock solutions by spraying. After drying, the plates were infested with L2 larvae (6 to 10 per well). The samples were assessed for mortality and growth inhibition in comparison to untreated samples 4 days after infestation.

[2] = system: Euschistus heros; assay: Example B2: Euschistus heros (neotropical brown stink bug), sprayed soybean leaves; conditions: 120 h, read-out: effect in at least one of the two categories (mortality or growth inhibition)
Experimental: Example B2: Euschistus heros(Neotropical Brown Stink Bug)
Soybean leaves on agar in 24-well microtiter plates were sprayed with aqueous test solutions prepared from 10′000 ppm DMSO stock solutions. After drying the leaves were infested with N2 nymphs. The samples were assessed for mortality and growth inhibition in comparison to untreated samples 5 days after infestation.

[3] = system: Myzus persicae; assay: Example B3: Myzus persicae (green peach aphid), feeding/contact activity; conditions: 144 h
Experimental: Example B3: Myzus persicae (Green Peach Aphid):Feeding/Contact Activity
Sunflower leaf discs were placed onto agar in a 24-well microtiter plate and sprayed with aqueous test solutions prepared from 10′000 ppm DMSO stock solutions. After drying, the leaf discs were infested with an aphid population of mixed ages. The samples were assessed for mortality 6 days after infestation.

[4] = system: Plutella xylostella; assay: Example B5: Plutella xylostella (diamond back moth), artificial diet; conditions: 120 h, read-out: effect in at least one of the two categories (mortality or growth inhibition)
Experimental: Example B5: Plutella xylostella (Diamond Back Moth)
24-well microtiter plates with artificial diet were treated with aqueous test solutions prepared from 10′000 ppm DMSO stock solutions by pipetting. After drying, the plates were infested with L2 larvae (10 to 15 per well). The samples were assessed for mortality and growth inhibition in comparison to untreated samples 5 days after infestation.

[5] = system: Spodoptera littoralis; assay: whole plant or invertebrate; conditions: foliar, 72 h, read-out: control (mortality, anti-feeding effect, or growth inhibition)
Experimental: (§1) Example B6: Spodoptera littoralis (Egyptian Cotton Leaf Worm)
Cotton leaf discs were placed onto agar in 24-well microtiter plates and sprayed with aqueous test solutions prepared from 10′000 ppm DMSO stock solutions. After drying the leaf discs were infested with five L1 larvae. The samples were assessed for mortality, anti-feeding effect, and growth inhibition in comparison to untreated samples 3 days after infestation. Control of Spodoptera littoralis by a test sample is given when at least one of the categories mortality, anti-feedant effect, and growth inhibition is higher than the untreated sample.

[6] = system: Spodoptera littoralis; assay: whole plant or invertebrate; conditions: in Gossypium barbadense, 144 h, read-out: effect in at least one of the three categories (mortality, anti-feeding, or growth inhibition)
Description: as §1
Test compounds were applied by pipette from 10′000 ppm DMSO stock solutions into 24-well plates and mixed with agar. Lettuce seeds were placed onto the agar and the multi well plate was closed by another plate which contained also agar. After 7 days the compound was absorbed by the roots and the lettuce grew into the lid plate. The lettuce leaves were then cut off into the lid plate. Spodoptera eggs were pipetted through a plastic stencil onto a humid gel blotting paper and the lid plate was closed with it. The samples were assessed for mortality, anti-feedant effect and growth inhibition in comparison to untreated samples 6 days after infestation.

[7] = system: Myzus persicae; assay: Example B4: Myzus persicae (green peach aphid), systemic activity; conditions: 144 h, test rate of 24 ppm, roots of pea seedlings in test solution, 6 days
Experimental: Example B4: Myzus persicae (Green Peach Aphid). Systemic Activity
Roots of pea seedlings infested with an aphid population of mixed ages were placed directly into aqueous test solutions prepared from 10′000 DMSO stock solutions. The samples were assessed for mortality 6 days after placing seedlings into test solutions.

[8] = system: Frankliniella occidentalis; assay: Example B7: Frankliniella occidentalis (western flower thrips), feeding/contact activity; conditions: 168 h, application rate of 200 ppm, population of mixed ages, 7 days after infestation
Experimental: Example B7: Frankliniella occidentalis (Western Flower Thrips):Feeding/Contact Activity
Sunflower leaf discs were placed on agar in 24-well microtiter plates and sprayed with aqueous test solutions prepared from […] stock solutions. After drying the leaf discs were infested with a Frankliniella population of mixed ages. The samples were assessed for mortality 7 days after infestation.

[9] = system: Thrips tabaci; assay: Example B8: Thrips tabaci (onion thrips), feeding/contact activity; conditions: 144 h, application rate of 200 ppm, population of mixed ages, 6 days after infestation
Experimental: Example B8: Thrips tabaci (Onion Thrips) Feeding/Contact Activity
Sunflower leaf discs were placed on agar in 24-well microtiter plates and sprayed with aqueous test solutions prepared from 10′000 ppm DMSO stock solutions. After drying the leaf discs were infested with a thrips population of mixed ages. The samples were assessed for mortality 6 days after infestation.

CCS(=O)(=O)c1cc2ccccc2nc1-c1cn2cnc(C(F)(F)F)cc2n1 [Compound P1, 3-ethylsulfonyl-2-[7-(trifluoromethyl)imidazo[1,2-c]pyrimidin-2-yl]quinolone]
≥ 80%: percent control (mortality or growth inhibition) at 200 ppm [1] | percent control (mortality or growth inhibition) at 200 ppm [2] | mortality at 200 ppm [3] | percent control (mortality or growth inhibition) at 200 ppm [4] | percent control (mortality, anti-feedant effect or growth inhibition) at 200 ppm [5] | percent control (mortality, anti-feedant effect or growth inhibition) at 12.5 ppm [6]

CCS(=O)(=O)c1cc2c(cc1-c1cn3cnc(C(F)(F)F)cc3n1)nc(C(F)(F)F)n2C [Compound P2, 2-[6-ethylsulfonyl-1-methyl-2-(trifluoromethyl)benzimidazol-5-yl]-7-(trifluoromethyl)imidazo[1,2-c]pyrimidine]
≥ 80%: percent effect (mortality or growth inhibition) at 200 ppm ([1]; application rate of 200 ppm, L2 larvae, 4 days after infestation) | percent effect (mortality or growth inhibition) at 200 ppm ([2]; application rate of 200 ppm, N2 nymphs, 5 days after infestation) | mortality at 200 ppm ([3]; application rate of 200 ppm, aphid population of mixed ages, 6 days after infestation, read-out: mortality) | mortality at 24 ppm [7] | percent effect (mortality or growth inhibition) at 200 ppm ([4]; application rate of 200 ppm, L2 larvae, 5 days after infestation) | mortality at 200 ppm [8] | mortality at 200 ppm [9]
